Data published in patent publication US12319655B2, “RAF kinase inhibitors and methods of use thereof” (Deciphera Pharmaceuticals, LLC, priority 2021, dated 2025).

What was measured:
Miapaca-2 cells = experiment: MiaPaca-2 Combination Cell proliferation Assay (1) with cobimetinib; assay type: cell-based; settings: MiaPaca-2 cell proliferation, read-out: MiaPaca-2 Combo (1) IC50
WM3629 cells = experiment: WM3629 Cell Proliferation Assay (1); assay type: cell-based
Protocol: WM3629 Cell Proliferation Assay (1)
WM3629 cells (#WM3629-01-0001) are obtained from Rockland Immunochemicals Inc (Gilbertsville, PA). Briefly, cells were grown in MCDB 153 medium (Sigma, #M7403, St. Louis, MO) supplemented with 20% Leibovitz's L-15 (ThermoFisher #11415-064, Waltham, MA), 2% heat inactivated fetal bovine serum (ThermoFisher, #A3840001, Waltham, MA), 5 μg/mL Insulin (Bovine Pancreas) (Sigma, #10516, St. Louis, MO), 1.68 mM Calcium Chloride (Sigma, #C-34006, St. Louis, MO) and 1% Penicillin/Streptomycin/L-Glutamine (ThermoFisher #10378016, Waltham, MA) at 37° C., 5% CO2, and 95% humidity. Cells are expanded until reaching 70-95% confluency at which point they are subcultured or harvested for assay use. A serial dilution of test compound is dispensed into a 96-well black clear bottom plate in triplicate. Four thousand five hundred cells are added per well in 200 μL complete growth medium in the 96-well plate. Plates are incubated for 67-72 hours at 37° C., 5% CO2, and 95% humidity. At the end of the incubation, 40 μL of a 440 μM solution of resazurin (Sigma, #199303, St. Louis, MO) in PBS is added to each well of the plate and plates are incubated for an additional 6-7 hours at 37° C., 5% CO2, and 95% humidity. Plates are read on a Synergy2 or equivalent reader (Biotek, Winooski VT) using an excitation of 540 nm and an emission of 600 nm. Data is analyzed using Prism software (GraphPad, San Diego, CA) to calculate IC50 values.

SMILES	IC50 (Miapaca-2 cells) [nM]	IC50 (WM3629 cells) [nM]
Cc1ccc(NC(=O)c2ccnc(C(C)(C)C#N)c2)cc1-c1ccnc(-c2ccnc3c2CC(=O)N3)c1 [Example 23]	100 to 500	–
CC(=O)Nc1cc(-c2nccc(-c3cc(NC(=O)c4ccnc(C(F)(F)F)c4)ccc3C)n2)ccn1 [Example 24]	≤ 100	–
CNC(=O)c1cc(-c2nccc(-c3cc(NC(=O)c4ccnc(C(F)(F)F)c4)ccc3C)n2)ccn1 [Example 25]	≤ 100	–
CC(=O)Nc1cc(-c2cc(-c3cc(C(=O)Nc4ccnc(C(F)(F)F)c4)ccc3C)ccn2)ccn1 [Example 26]	≤ 100	–
CNC(=O)c1cc(-c2cc(-c3cc(NC(=O)c4ccnc(C(F)(F)F)c4)ccc3C)cc(C3CC3)n2)ccn1 [Example 27]	500 to 1000	–
CC(=O)Nc1cc(-c2cccc(-c3cc(NC(=O)c4ccnc(C(F)(F)F)c4)ccc3C)c2)ccn1 [Example 28]	≤ 100	–
CC(=O)Nc1cc(-c2cncc(-c3cc(NC(=O)c4ccnc(C(F)(F)F)c4)ccc3C)n2)ccn1 [Example 29]	≤ 100	–
CC(=O)Nc1cc(-c2cccc(-c3cc(NC(=O)c4ccnc(C(F)(F)F)c4)ccc3C)c2)ncn1 [Example 30]	≤ 100	–
COC(=O)Nc1cc(-c2cccc(-c3cc(NC(=O)c4ccnc(C(C)(C)C#N)c4)cnc3C)c2)ccn1 [Example 282]	≤ 100	–
COC(=O)Nc1cc(-c2cc(-c3cc(NC(=O)c4ccnc(C(C)(C)C#N)c4)cnc3C)ccn2)ccn1 [Example 297]	≤ 100	–
COC(=O)Nc1cc(-c2cc(-c3cc(NC(=O)c4ccnc(C(C)(C)F)c4)c(F)cc3C)ccn2)ccn1 [Example 302]	≤ 100	≤ 100
COC(=O)Nc1cc(-c2nccc(-c3cc(NC(=O)c4ccnc(C(C)(C)C#N)c4)c(F)cc3C)n2)ccn1 [Example 303]	≤ 100	≤ 100
COC(=O)Nc1cc(-c2nccc(-c3cc(NC(=O)c4ccnc(C(C)(C)F)c4)c(F)cc3C)n2)ccn1 [Example 304]	≤ 100	≤ 100
COC(=O)Nc1cc(-c2cc(-c3cc(NC(=O)c4ccnc(C(C)(C)C#N)c4)c(F)cc3C)ccn2)ccn1 [Example 308]	≤ 100	≤ 100
Cc1ccc(NC(=O)c2ccnc(C(C)(C)F)c2)cc1-c1cc(-c2ccnc(NC(=O)C3CC3)c2)cnn1 [Example 315]	≤ 100	≤ 100
COC(C)(C)c1cc(C(=O)Nc2ccc(C)c(-c3cc(-c4ccnc(NC(=O)C5CC5)c4)cnn3)c2)ccn1 [Example 319]	≤ 100	–
Cc1ccc(NC(=O)c2cnn(C(C)(C)C)c2)cc1-c1cc(-c2ccnc(NC(=O)C3CC3)c2)cnn1 [Example 321]	–	≤ 100
CNC(=O)c1cc(-c2cnnc(-c3cc(NC(=O)c4ccnc(C(C)(C)F)c4)ccc3C)c2)ccn1 [Example 325]	–	≤ 100
CNC(=O)c1cc(-c2cnnc(-c3cc(NC(=O)c4ccnc(C(F)F)c4)ccc3C)c2)ccn1 [Example 327]	–	1000 to 10000
CNC(=O)c1cc(-c2cc(-c3cc(NC(=O)COCC4CC4)ccc3C)ccn2)ccn1 [Example 358]	1000 to 10000	–
